{"source": "paper PMC4128785", "about": "(Molecular Pharmaceutics, 2014)", "origin": "cited, not measured here", "conditions": "Sc(III) complex of DOTA"}
{"smiles": "O=C(O)CN1CCN(CC(=O)O)CCN(CC(=O)O)CCN(CC(=O)O)CC1", "note": "[DOTA, 1,4,7,10-tetraazacyclododecane-N,N′,N″,N‴-tetraacetic acid]", "values": [{"measurement": "thermodynamic stability (−log K)", "result": 27.0}]}
